The source of these data is PMC12040169 (PLOS Biology, 2025).

One may read the viability as a read-out of living cells in per cent, often relative to untreated cells.

A short description of the data set: in vitro. To be noted: human, hela cells, % viability.

Each structure is given as a SMILES string.

`COc1cc(/C=C2\N=C(c3cccs3)OC2=O)ccc1OCc1ccc(Cl)cc1` [CBK263176]: the viability at 28.5 h, 10 µM was found to be 101%.

For `CCOC(=O)C1(Cc2cc(-c3cccc(F)c3)no2)CCNCC1` [CBK284881], the viability at 28.5 h, 10 µM amounted to 89.4%.

Regarding `COc1ccc(S(=O)(=O)N2CCCCC2C(=O)O)cc1` (stereo not drawn) [CBK077424], the viability at 28.5 h, 10 µM amounted to 99.5%.

For the compound `CN(CC(=O)O)c1ccccc1C(=O)O` [CBK260996], the viability at 28.5 h, 10 µM stood at 98.2%.

Regarding `CN(C)CCCNC(=O)c1cccc(Nc2cncc(-c3ccc(O)cc3)n2)c1` [CBK122669], the viability at 28.5 h, 10 µM came out at 87.7%.

In the case of `COc1cccc(C(=O)N2CCN(S(=O)(=O)c3ccc([N+](=O)[O-])cc3)CC2)c1` [CBK157533], the viability at 28.5 h, 10 µM was found to be 96.9%.

`CN1Cc2ccccc2CC1C(=O)N1CCCC12CC=CC2` (stereo not drawn) [CBK282838]: the viability at 28.5 h, 10 µM was 81.3%.

On to `Cc1cccc([C@H]2CN(C(=O)C3CCCC3)[C@@H]3CCN(C4CCCC4)C[C@H]23)c1` [CBK285529], for which the viability at 28.5 h, 10 µM worked out at 118%.

Consider `FC(F)(F)c1ccnc(Sc2cccs2)n1` [CBK115245], for which the viability at 28.5 h, 10 µM turned out to be 87.7%.

`COCCN1C(=O)c2ccc(C(=O)Nc3cc(C(=O)O)cc(C(=O)O)c3)cc2C1=O` [CBK268444]: the viability at 28.5 h, 10 µM came out at 96.5%.

Turning to `COc1ccc(N2C(=O)CC(n3c(CCCCO)nc4ccccc43)C2=O)cc1` (stereo not drawn) [CBK268895], the viability at 28.5 h, 10 µM worked out at 107%.

Regarding `CCOC(=O)c1ccc(NC(=O)C2CC(=O)NC(Nc3nc4ccccc4s3)=N2)cc1` (stereo not drawn) [CBK264396], the viability at 28.5 h, 10 µM amounted to 100%.

Consider `CN(C)C1(c2nnnn2CCOC(=O)Nc2ccc(Cl)cc2)CCCCC1` [CBK266093], for which the viability at 28.5 h, 10 µM was determined as 94.5%.

With `CC[C@H]1CN(C(=O)Nc2ccccc2)CC[C@H]1CC(=O)N(C)CC#N` [CBK288777], the viability at 28.5 h, 10 µM was found to be 101%.

As to `O=C(O)C1CCCN(C(=O)Cc2csc(COc3ccc(Cl)cc3)n2)C1` (stereo not drawn) [CBK304501], the viability at 28.5 h, 10 µM is 88.1%.

Take `C[C@H](Nc1nc(-c2cccc(/C=C/C(=O)O)c2)cnc1N)c1ccccc1` [CBK063754]: the viability at 28.5 h, 10 µM was 85.2%.

Consider `CCOC(=O)c1cccc(-c2ccc(OC)c(OC)c2)n1` [CBK149247], for which the viability at 28.5 h, 10 µM is 95.4%.

Consider `CCCCn1cnc2c(c1=O)c1nc3ccccc3nc1n2CCc1ccc(OC)cc1` [CBK269538], for which the viability at 28.5 h, 10 µM came to 85.7%.

With `CC(=O)Nc1ccc(NC(=O)CCn2c(-c3cccc(C)c3)n[nH]c2=S)cc1Cl` [CBK296656], the viability at 28.5 h, 10 µM was 99.3%.

On to `CCCc1nn(CC(=O)N(C)C)c(=O)c2cc3ccsc3n12` [CBK284193], for which the viability at 28.5 h, 10 µM was determined as 84.4%.

`CC(=O)N1CCCC(c2cc3cccnc3n2CC(=O)N(C)C)C1` (stereo not drawn) [CBK285177]: the viability at 28.5 h, 10 µM came out at 106%.

As for `O=c1nc(-c2ccccc2Cl)oc2ccccc12` [CBK152263], the viability at 28.5 h, 10 µM is 89.9%.

Take `NC(=O)c1c(NC(=O)c2ccc(S(=O)(=O)N3CCCC3)cc2)sc2c1CCCC2` [CBK262486]: the viability at 28.5 h, 10 µM was found to be 106%.

As to `CCn1c(SCC(=O)NC2CCCCC2C)nnc1-c1cc2cccc(OC)c2o1` (stereo not drawn) [CBK267148], the viability at 28.5 h, 10 µM was determined as 89.5%.

For `COc1cncc(-c2cc(NCc3cc(OC)c(OC)c(OC)c3)ncn2)c1` [CBK091183], the viability at 28.5 h, 10 µM is 88.4%.

For the compound `CC(C)c1ccc(-c2cncc(NCc3cccc(Cl)c3)n2)cc1` [CBK065347], the viability at 28.5 h, 10 µM worked out at 106%.

Consider `FC(F)(F)c1ccc(CN2CCN(c3nccnc3OCC3COc4ccccc4O3)CC2)cc1` (stereo not drawn) [CBK082789T], for which the viability at 28.5 h, 10 µM worked out at 115%.

With `O=C(NCC1COc2ccccc2O1)N1CCCCC1CO` (stereo not drawn) [CBK156162], the viability at 28.5 h, 10 µM came out at 103%.

On to `CC(C)NC(=S)NC(=O)C1CCC1` [CBK010718], for which the viability at 28.5 h, 10 µM worked out at 86.2%.

For `Cc1nn(CC(=O)N2CCCC2)c(=O)c2cc3occc3n12` [CBK283621], the viability at 28.5 h, 10 µM was 84.5%.

In the case of `O=C(Cn1c(-c2cccs2)cc2cccnc21)N1CCOCC1` [CBK282452], the viability at 28.5 h, 10 µM was found to be 101%.

On to `Nc1ncnc2sc3c(c12)CCN(C(=O)c1ccc2nccnc2c1)C3` [CBK295588], for which the viability at 28.5 h, 10 µM came to 102%.

For `CC[C@H]1CN(S(C)(=O)=O)CC[C@H]1CC(=O)NCc1ccco1` [CBK289141], the viability at 28.5 h, 10 µM amounted to 89.2%.

Take `CSCCCNC(=O)N1CCN(CCc2ccccc2)CC1` [CBK158900]: the viability at 28.5 h, 10 µM worked out at 81.6%.

For the compound `COC(=O)C1CCCN1CC(=O)NCc1ccc(OCC(N)=O)cc1` (stereo not drawn) [CBK304970], the viability at 28.5 h, 10 µM was 86.1%.

For `COc1ccc(S(=O)(=O)N(CC(=O)N2CCc3ccccc3C2)C2CCCCC2)cc1Cl` [CBK268525], the viability at 28.5 h, 10 µM is 97.9%.

Turning to `Cc1noc(C)c1CC(=O)NC(C)CCc1ccc(F)cc1` (stereo not drawn) [CBK281511], the viability at 28.5 h, 10 µM came to 89.8%.

In the case of `COc1ccc(C2C=C(c3ccc(OC)c(OC)c3)Nc3ncnn32)c(OC)c1` (stereo not drawn) [CBK293934], the viability at 28.5 h, 10 µM came out at 93.3%.

In the case of `CCOC(=O)/C(=N/Nc1cccc(C)c1)c1csc(N)n1` [CBK261059], the viability at 28.5 h, 10 µM amounted to 97.9%.

As to `COc1ccc(C2C(C(=O)Nc3ccccc3)=C(C)Nc3ncnn32)cc1` (stereo not drawn) [CBK287353], the viability at 28.5 h, 10 µM is 103%.

As for `COc1ccc(Br)cc1/C=N/NC(=O)CC1C(=O)NN=C1C` (stereo not drawn) [CBK263359], the viability at 28.5 h, 10 µM is 99.2%.

`O=C(CCn1c(C(F)F)cc2cccnc21)N1CCCCCC1` [CBK284983]: the viability at 28.5 h, 10 µM came out at 96.9%.

As for `CS(=O)(=O)c1ccc(-n2nnnc2CNC2(CO)CCCC2)cc1` [CBK304134], the viability at 28.5 h, 10 µM is 91.8%.

For the compound `COc1ccc(C(NC(=O)C2CCN(Cc3ccc(OC)c(OC)c3)CC2)c2ccccc2C)cn1` (stereo not drawn) [CBK081452T], the viability at 28.5 h, 10 µM was 99.7%.

For the compound `O=S(=O)(c1ccc(C2=CSC3=NCCN23)cc1)N1CCOCC1` [CBK019381], the viability at 28.5 h, 10 µM amounted to 101%.

Take `Cc1ccc(Cl)cc1N1CCN(C(=O)C2C3C=CC(C3)C2C(=O)O)CC1` (stereo not drawn) [CBK287025]: the viability at 28.5 h, 10 µM stood at 117%.

`Cc1c(C(c2ccc(C(=O)O)cc2)c2c(C)n(C)n(-c3ccccc3)c2=O)c(=O)n(-c2ccccc2)n1C` [CBK261691]: the viability at 28.5 h, 10 µM amounted to 102%.

Take `O=C1NC2(CCCCC2)C(=O)N1Cc1cnn(-c2ccccc2)n1` [CBK305570]: the viability at 28.5 h, 10 µM is 97.8%.

Take `COc1ccccc1-c1ccc(NC(=O)CCc2nc3ccccc3[nH]2)cc1` [CBK285651]: the viability at 28.5 h, 10 µM turned out to be 103%.

For the compound `Nc1ncc(-c2ccc(C(F)(F)F)cc2)nc1-c1ccc(C(=O)N2CCOCC2)cc1` [CBK090524], the viability at 28.5 h, 10 µM was 103%.

Consider `C=CCOc1ccc(CN(C)Cc2nc3cc(C(=O)O)ccc3c(=O)[nH]2)cc1` [CBK295156], for which the viability at 28.5 h, 10 µM amounted to 101%.

For `COc1ccc(-c2noc(CN(C(C)=O)C3CCCCC3)n2)cc1` [CBK270264], the viability at 28.5 h, 10 µM is 111%.

For the compound `Cc1ccc2c(N)c(C(=O)c3ccc4c(c3)OCCO4)sc2n1` [CBK270265], the viability at 28.5 h, 10 µM came to 84.2%.

Turning to `Cc1nn(-c2ccc(F)cc2)c2c1C(c1ccc(C(=O)O)cc1)CC(=O)N2` (stereo not drawn) [CBK286561], the viability at 28.5 h, 10 µM is 101%.

As for `CN1CCN(C(=O)c2ccc(-c3ccc4c(c3)OCO4)nc2NCc2cccnc2)CC1` [CBK076110], the viability at 28.5 h, 10 µM stood at 90.7%.

Consider `COc1ccc(CCNC(=O)C(N)=O)cc1OC` [CBK288457], for which the viability at 28.5 h, 10 µM amounted to 90.9%.

`O=C1CC(c2ccc(S(=O)(=O)NCc3ccccc3)cc2)CN1` (stereo not drawn) [CBK270155]: the viability at 28.5 h, 10 µM was 87.5%.
